Measurements published in patent publication US10766869B2, “Triazoles for the treatment of demyelinating dieases” (Vertex Pharmaceuticals Incorporated, priority 2015, dated 2020).
Read-outs that look alike come from different tables or passages of the source.

Test system: primary rat mixed cortical cells
Assay: In vitro myelination assay (MBP positive myelin strands, fold myelin pixels above background)
Format: cell-based
Settings: Rattus norvegicus; for fold induction at 1 µM: 1.0 μM compound; for fold induction at 10 µM: 10.0 μM compound
How it was run: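 Myelination read as total MBP-immunopositive strand pixels per well, imaged at 10× after fixation on day 14 and expressed relative to untreated wells, at 1.0 and 10.0 μM. Cells: dissociated postnatal day 1 rat cortex, cultured two weeks with compound, re-dosed at days 6 and 10.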

[1] = relative to baseline of no added compound, read-out: Fold myelin pixels above background, 1.0 μM
[2] = relative to baseline of no added compound, read-out: Fold myelin pixels above background, 10.0 μM
[3] = relative to baseline of no added compound, read-out: Fold myelin pixels above background
[4] = read-out: Fold myelin pixels above background relative to baseline of no added compound

Row | SMILES | fold induction at 1 µM [3] | fold induction at 10 µM [3] | fold induction at 1 µM [4] | fold induction at 10 µM [4] | other results
1 | Cc1cc(Nc2ncn(-c3ccccc3)n2)cc(C2CCN(C3COC3)CC2)c1 [Compound 71, N-[3-methyl-5-[1-(oxetan-3-yl)-4-piperidyl]phenyl]-1-phenyl-1,2,4-triazol-3-amine] |  |  |  |  | fold induction at 1 µM [1]: 1000 to 10000; fold induction at 10 µM [2]: ≤ 1
2 | FC(F)(F)c1cc(Nc2ncn(-c3ccccc3)n2)nc(N2CCN(C3COC3)CC2)c1 [Compound 547, 6-[4-(oxetan-3-yl)piperazin-1-yl]-N-(1-phenyl-1,2,4-triazol-3-yl)-4-(trifluoromethyl)pyridin-2-amine] | 100 to 1000 | 10 to 100 |  |  | 
3 | Cc1cc(Nc2ncn(-c3ccccc3)n2)c(F)c(N2CCN(C3COC3)CC2)c1 [Compound 1085, N-[2-fluoro-5-methyl-3-[4-(oxetan-3-yl)piperazin-1-yl]phenyl]-1-phenyl-1,2,4-triazol-3-amine] |  |  | 10 to 100 | 10 to 100 | 
4 | Cc1cc(Nc2ncn(-c3cc(C)cc(F)c3)n2)cc(N2CCN(C)CC2)c1 [Compound 424, 1-(3-fluoro-5-methyl-phenyl)-N-[3-methyl-5-(4-methylpiperazin-1-yl)phenyl]-1,2,4-triazol-3-amine] | 100 to 1000 | ≤ 1 |  |  | 
5 | Fc1cc(F)cc(-n2cnc(Nc3cc(C4CCOC4)cc(N4CCOCC4)c3)n2)c1 (stereo not shown) [Compound 456, 1-(3,5-difluorophenyl)-N-(3-morpholino-5-tetrahydrofuran-3-yl-phenyl)-1,2,4-triazol-3-amine] | 1000 to 10000 | 100 to 1000 |  |  | 
6 | Cc1cc(Nc2ncn(-c3ccc(F)c(F)c3)n2)c(F)c(OC2CCOC2)c1 (stereo not shown) [Compound 978, 1-(3,4-difluorophenyl)-N-(2-fluoro-5-methyl-3-tetrahydrofuran-3-yloxy-phenyl)-1,2,4-triazol-3-amine] |  |  | 10 to 100 | 1 to 10 | 
7 | Cc1cc(Nc2ncn(-c3cccc(F)c3)n2)cc(N2CC(N3CCOCC3)C2)c1 [Compound 721, 1-(3-fluorophenyl)-N-[3-methyl-5-(3-morpholinoazetidin-1-yl)phenyl]-1,2,4-triazol-3-amine] | 10 to 100 | ≤ 1 |  |  | 
8 | Cc1cc(-n2cnc(Nc3cc(F)cc(N4CCN(C5COC5)CC4)c3)n2)ccc1F [Compound 647, 1-(4-fluoro-3-methyl-phenyl)-N-[3-fluoro-5-[4-(oxetan-3-yl)piperazin-1-yl]phenyl]-1,2,4-triazol-3-amine] | 1 to 10 | ≤ 1 |  |  | 
9 | Cc1cc(Nc2ncn(-c3cc(F)cc(F)c3)n2)c(F)c(NC2COC2)c1 [Compound 915, N3-[1-(3,5-difluorophenyl)-1,2,4-triazol-3-yl]-2-fluoro-5-methyl-N1-(oxetan-3-yl)benzene-1,3-diamine] |  |  | 1 to 10 | ≤ 1 | 
10 | Fc1cc(F)cc(-n2cnc(Nc3cc(C4CCOCC4)nc(C4CC4)c3)n2)c1 [Compound 407, 2-cyclopropyl-N-[1-(3,5-difluorophenyl)-1,2,4-triazol-3-yl]-6-tetrahydropyran-4-yl-pyridin-4-amine] | 1000 to 10000 | ≤ 1 |  |  | 
11 | CC(C)c1cc(Nc2ncn(-c3ccncn3)n2)cc(N2CCN(C3COC3)CC2)c1 [Compound 511, N-[3-isopropyl-5-[4-(oxetan-3-yl)piperazin-1-yl]phenyl]-1-pyrimidin-4-yl-1,2,4-triazol-3-amine] | 100 to 1000 | 100 to 1000 |  |  | 
12 | Cc1cc(Nc2ncn(-c3cc(F)cc(F)c3)n2)cc(N2CCN(C3COC3)CC2=O)c1 [Compound 67, 1-[3-[[1-(3,5-difluorophenyl)-1,2,4-triazol-3-yl]amino]-5-methyl-phenyl]-4-(oxetan-3-yl)piperazin-2-one] |  |  |  |  | fold induction at 1 µM [1]: 1 to 10; fold induction at 10 µM [2]: 10 to 100
13 | Cc1cc(Nc2ncn(-c3cc(F)cc(F)c3)n2)cc(N2CC(C)C(N3CCOCC3)C2)c1 (stereo not shown) [Compound 871, 1-(3,5-difluorophenyl)-N-[3-methyl-5-(3-methyl-4-morpholino-pyrrolidin-1-yl)phenyl]-1,2,4-triazol-3-amine] |  |  | 1 to 10 | 1 to 10 | 
14 | Cc1cc(Nc2ncn(-c3cccc(F)c3)n2)nc(N2CC(N3CCOCC3)C2)c1 [Compound 538, N-[1-(3-fluorophenyl)-1,2,4-triazol-3-yl]-4-methyl-6-(3-morpholinoazetidin-1-yl)pyridin-2-amine] | 1 to 10 | 1 to 10 |  |  | 
15 | Cc1cc(NCCOC2CCC2)cc(Nc2ncn(-c3cc(F)cc(F)c3)n2)c1 [Compound 1008, N3-[2-(cyclobutoxy)ethyl]-N1-[1-(3,5-difluorophenyl)-1,2,4-triazol-3-yl]-5-methyl-benzene-1,3-diamine] |  |  | 10 to 100 | 1 to 10 | 
16 | Cc1cc(Nc2ncn(-c3ccccn3)n2)nc(N2CC(N3CCOCC3)C2)c1 [Compound 503, 4-methyl-6-(3-morpholinoazetidin-1-yl)-N-[1-(2-pyridyl)-1,2,4-triazol-3-yl]pyridin-2-amine] | 1 to 10 | ≤ 1 |  |  | 
17 | Cc1cc(Nc2ncn(-c3cc(F)cc(F)c3)n2)cc(N2CC(N3CC4CC3CO4)C2)c1 (stereo not shown) [Compound 788, 1-(3,5-difluorophenyl)-N-[3-methyl-5-[3-(2-oxa-5-azabicyclo[2.2.1]heptan-5-yl)azetidin-1-yl]phenyl]-1,2,4-triazol-3-amine] |  |  | 10 to 100 | 1 to 10 | 
18 | CC(=O)N[C@H]1C[C@H](Oc2cc(C)cc(Nc3ncn(-c4cc(F)cc(F)c4)n3)c2)C1 [Compound 813, N-[3-[3-[[1-(3,5-difluorophenyl)-1,2,4-triazol-3-yl]amino]-5-methyl-phenoxy]cyclobutyl]acetamide] |  |  | 10 to 100 | 1 to 10 | 
19 | COCC1CCN(c2cc(C(F)F)cc(Nc3ncn(-c4cc(F)cc(F)c4)n3)n2)CC1 [Compound 729, 4-(difluoromethyl)-N-[1-(3,5-difluorophenyl)-1,2,4-triazol-3-yl]-6-[4-(methoxymethyl)-1-piperidyl]pyridin-2-amine] | ≤ 1 | 10 to 100 |  |  | 
20 | Cc1cc(Nc2ncn(-c3ccc(C(F)(F)F)cc3)n2)cc(N2CCN(C3COC3)CC2)c1 [Compound 191] |  |  |  |  | fold induction at 1 µM [1]: ≤ 1; fold induction at 10 µM [2]: 1 to 10
21 | FC(F)(F)c1cc(Nc2ncn(-c3cnccn3)n2)cc(N2CCOCC2)c1 [Compound 357, N-[3-morpholino-5-(trifluoromethyl)phenyl]-1-pyrazin-2-yl-1,2,4-triazol-3-amine] |  |  |  |  | fold induction at 1 µM [1]: 1 to 10; fold induction at 10 µM [2]: 1 to 10
22 | Cc1cc(Nc2ncn(-c3cc(F)cc(F)c3)n2)cc(N2CC(N3C[C@@H](C)O[C@@H](C)C3)C2)c1 [Compound 618, 1-(3,5-difluorophenyl)-N-[3-[3-[(2R,6S)-2,6-dimethylmorpholin-4-yl]azetidin-1-yl]-5-methyl-phenyl]-1,2,4-triazol-3-amine] | 10 to 100 | 10 to 100 |  |  | 
23 | Fc1cc(Nc2ncn(-c3cccc(F)c3)n2)cc(N2CCN(C3COC3)CC2)c1 [Compound 594, N-[3-fluoro-5-[4-(oxetan-3-yl)piperazin-1-yl]phenyl]-1-(3-fluorophenyl)-1,2,4-triazol-3-amine] | 1 to 10 | 1 to 10 |  |  | 
